This note sets out measurements from ChEMBL document CHEMBL3352180, “From chemical tools to clinical medicines: nonimmunosuppressive cyclophilin inhibitors derived from the cyclosporin and sanglifehrin scaffolds” (J Med Chem, 2014).

Assay [1] concerns the target Peptidyl-prolyl cis-trans isomerase F, mitochondrial (Homo sapiens, UniProt P30405).
Description: Binding affinity to cyclophilin D (unknown origin)
For assay [2], the system named is Hepatitis C virus. In words: microbe, parasite or virus in culture.
Description: Antiviral activity against HCV by replicon based assay
Assay [3] has as its target Peptidyl-prolyl cis-trans isomerase A (Homo sapiens, UniProt P62937).
Description: Binding affinity to cyclophilin A (unknown origin)
Assay [4] deals with Hepatitis C virus. Put plainly: Antiviral activity against HCV assessed as inhibition of viral replication at 1 uM by replicon based assay. The assay is classed as functional, Hepacivirus hominis.
A further assay deals with Lymphocyte. Put plainly: cells.
For another assay, the species on record is Homo sapiens. In words: Inhibition of Pgp (unknown origin) assessed as reduction in pump efflux activity.

Where only a bound is given, the exact number is not on record here.

Peptidyl-prolyl cis-trans isomerase A, sequence (P62937 whole entry): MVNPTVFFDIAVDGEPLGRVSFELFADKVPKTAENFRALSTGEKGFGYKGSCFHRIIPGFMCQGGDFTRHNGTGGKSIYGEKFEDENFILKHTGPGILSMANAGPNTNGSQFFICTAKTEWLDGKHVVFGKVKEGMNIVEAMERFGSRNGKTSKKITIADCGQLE
Peptidyl-prolyl cis-trans isomerase F, mitochondrial, sequence (P30405 whole entry): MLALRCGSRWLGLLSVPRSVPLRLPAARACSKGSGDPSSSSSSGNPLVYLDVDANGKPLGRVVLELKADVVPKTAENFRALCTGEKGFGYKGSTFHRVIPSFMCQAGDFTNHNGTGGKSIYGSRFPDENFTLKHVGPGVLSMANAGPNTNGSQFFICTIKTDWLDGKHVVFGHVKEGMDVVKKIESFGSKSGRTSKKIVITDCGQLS
Description for Lymphocyte: Immunosuppressive activity in lymphocytes (unknown origin) by mixed lymphocyte reaction assay

For orientation: Kd means the constant that tells how readily two partners part at equilibrium. High values mean weaker binding, low ones tighter binding. What is called EC50 is the concentration needed to bring the measured effect to its halfway point. Low values mean a more potent agent, high ones a less potent agent. On to `C/C=C/C[C@@H](C)[C@@H](O)[C@H]1C(=O)N[C@@H](CC)C(=O)N(C)[C@@H](C)C(=O)N(C)[C@@H](CC(C)C)C(=O)N(CC=C(C)C)[C@@H](C(C)C)C(=O)N(C)[C@@H](CC(C)C)C(=O)N[C@@H](C)C(=O)N[C@H](C)C(=O)N(C)[C@@H](CC(C)C)C(=O)N(C)[C@@H](CC(C)C)C(=O)N(C)[C@@H](C(C)C)C(=O)N1C`, for which the equilibrium dissociation constant (Kd) in assay [1] and in assay [3] was under 60 nM each time. Further, the EC50 in the assay with Hepatitis C virus [2] was under 200 nM.
The inhibition is the share of the control response that was lost under treatment. With `CC(C)[C@@H]1NC(=O)C([C@H](C)O)/C=C/c2ccc3ccc(nc3c2)[C@@H](C)OC(=O)[C@@H]2CCCN(N2)C(=O)[C@H](C)NC1=O` (some centres not stated), the inhibition at 1 µM in the assay on Hepatitis C virus [4] was 99%.
As to `C/C=C/C[C@@H](C)[C@@H](O)[C@H]1C(=O)N[C@@H](CC)C(=O)N(C)[C@@H](SCCCN2CCOCC2)C(=O)N(C)[C@@H](CC(C)C)C(=O)N[C@@H](C(C)C)C(=O)N(C)[C@@H](CC(C)C)C(=O)N[C@@H](C)C(=O)N[C@H](C)C(=O)N(C)[C@@H](CC(C)C)C(=O)N(C)[C@@H](CC(C)C)C(=O)N(C)[C@@H](C(C)C)C(=O)N1C`, the EC50 in the assay on Lymphocyte was 3000 nM.
In the case of `CC(C)[C@@H]1OC(=O)[C@]2(/C=C/c3ccc4ccc(nc4c3)[C@@H](C)OC(=O)[C@@H]3CCCN(N3)C(=O)[C@H](C)NC1=O)CC[C@H](O)CC2`, the inhibition at 1 µM in the assay on Hepatitis C virus [4] came to 99%.
Take `C/C=C/C[C@@H](C)[C@@H](O)[C@H]1C(=O)N[C@@H](CC)C(=O)N(C)[C@H](SCCN(C)C)C(=O)N(C)[C@@H](CC(C)(C)O)C(=O)N[C@@H](C(C)C)C(=O)N(C)[C@@H](CC(C)C)C(=O)N[C@@H](C)C(=O)N[C@H](C)C(=O)N(C)[C@@H](CC(C)C)C(=O)N(C)[C@@H](CC(C)C)C(=O)N(C)[C@@H](C(C)C)C(=O)N1C`: in the assay listed under Homo sapiens, the INH turned out to be 15 µM.
